The record followed here is PubChem BioAssay (NCI).

Test systems include 786-0 renal; SR leukemia; U251 CNS; MALME-3M melanoma; OVCAR-3 ovarian; NCI-H460 lung; HL-60(TB) leukemia; SN12C renal; NCI-H226 lung; M19-MEL melanoma.
Common to all, as to experiment: NCI-60 cell line screen, 48 h

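Where inhibition never reached the appropriate level, the endpoint shown equals the highest concentration tested. Otherwise, values were interpolated linearly from a five-concentration, 48-hour dose response in 96-well plates. TGI denotes the concentration required for complete inhibition of growth.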 A value given as a limit tells only on which side of the number the result lay.

`c1ccc(C(Oc2noc3ccccc23)c2ccccc2)cc1`: the TGI is greater than 100 µM in the test on 786-0 renal; 51.6 µM with SR leukemia; greater than 100 µM with U251 CNS; greater than 100 µM in the test on MALME-3M melanoma; greater than 100 µM in the test with OVCAR-3 ovarian; greater than 100 µM in the test with NCI-H460 lung. Besides, the TGI in the test on HL-60(TB) leukemia is 61.3 µM; in the test on SN12C renal, greater than 100 µM; with NCI-H226 lung, greater than 100 µM.

For `CCCOC(=O)c1cc(O)c(O)c(O)c1`, the TGI was greater than 100 µM with 786-0 renal; greater than 100 µM with SR leukemia; greater than 100 µM with U251 CNS; greater than 100 µM in the test with MALME-3M melanoma; 79.8 µM in the test with OVCAR-3 ovarian; greater than 100 µM in the test on NCI-H460 lung. Further, the TGI with HL-60(TB) leukemia, with SN12C renal and with NCI-H226 lung was greater than 100 µM in each case.

`CC1(C)N=C(C(N)=O)c2[nH]cnc2N1`: the TGI with 786-0 renal, in the test on SR leukemia, in the test with U251 CNS, in the test on MALME-3M melanoma, in the test with OVCAR-3 ovarian and in the test on NCI-H460 lung was greater than 100 µM each time. In addition, the TGI in the test on HL-60(TB) leukemia, with SN12C renal and in the test with NCI-H226 lung was greater than 100 µM in each case.

In the case of `COC(=O)CN1CCN(c2cccc3c2CCCC3)CC1`, the TGI in the test on 786-0 renal is greater than 100 µM; with SR leukemia it was greater than 100 µM; in the test with U251 CNS, greater than 100 µM; with MALME-3M melanoma it was greater than 100 µM; in the test on OVCAR-3 ovarian it was 72.4 µM; in the test on NCI-H460 lung, greater than 100 µM. Further, the TGI was greater than 100 µM in the test with HL-60(TB) leukemia, greater than 100 µM with SN12C renal and 94.6 µM with NCI-H226 lung.

With `COC(=O)/C=C(C)/C=C\COC1CCCCO1` (stereo not drawn), the TGI with 786-0 renal, in the test with SR leukemia, in the test on U251 CNS, in the test with MALME-3M melanoma, with OVCAR-3 ovarian and in the test with NCI-H460 lung was greater than 100 µM in each case. Besides, the TGI in the test with HL-60(TB) leukemia, in the test with SN12C renal and in the test on NCI-H226 lung was greater than 100 µM throughout.

Turning to `CC(C)=CCC[C@@H](C)C1=C(O)C(N[C@H](C)c2ccccc2)=C(C)C(=O)C1=O`, the TGI with 786-0 renal is 20.7 µM; with SR leukemia, greater than 100 µM; in the test on U251 CNS, greater than 100 µM; in the test on MALME-3M melanoma, 14.6 µM; with OVCAR-3 ovarian it was greater than 100 µM; in the test on NCI-H460 lung, greater than 40 µM. Further, the TGI with HL-60(TB) leukemia stood at 10.8 µM; in the test with SN12C renal, 53.2 µM; with NCI-H226 lung, 21.1 µM.

For the compound `NC1=Nc2cc(C(F)(F)F)ccc2Sc2nc3ccccc3n21`, the TGI is greater than 28.6 µM with 786-0 renal; greater than 25.4 µM with SR leukemia; greater than 100 µM with U251 CNS; greater than 100 µM in the test on MALME-3M melanoma; greater than 100 µM in the test on OVCAR-3 ovarian; greater than 100 µM in the test with NCI-H460 lung. The figures for the TGI in the test on HL-60(TB) leukemia, with SN12C renal and with NCI-H226 lung were greater than 26 µM, greater than 100 µM and greater than 87.5 µM, respectively.

For the compound `CO[C@@]12C[C@H](CNC(=O)c3ccc[nH]3)O[C@@H]1NC(=O)N2`, the TGI with 786-0 renal, with SR leukemia, in the test on U251 CNS, in the test on MALME-3M melanoma, in the test with OVCAR-3 ovarian and in the test on NCI-H460 lung was greater than 100 µM in each case. The TGI in the test on HL-60(TB) leukemia, in the test with SN12C renal and in the test with NCI-H226 lung was greater than 100 µM each time.

`O=C(NNC(=O)c1ccco1)c1ccco1`: the TGI in the test on 786-0 renal, with SR leukemia, in the test on U251 CNS, in the test with MALME-3M melanoma, with OVCAR-3 ovarian and in the test with NCI-H460 lung was greater than 100 µM in each case. Also, the TGI in the test on HL-60(TB) leukemia, with SN12C renal and with NCI-H226 lung was greater than 100 µM each time.

As to `Cc1c(C#N)c2nnn(-c3cccc(Cl)c3)c(=O)n2c1-c1ccccc1`, the TGI in the test on 786-0 renal was greater than 100 µM; with SR leukemia it was 2.69 µM; with U251 CNS, 11.1 µM; with MALME-3M melanoma, greater than 100 µM; in the test with OVCAR-3 ovarian, 5.59 µM; in the test on NCI-H460 lung it was greater than 100 µM. For the same compound, the figures for the TGI in the test on HL-60(TB) leukemia, in the test with SN12C renal and with NCI-H226 lung were greater than 100 µM, 62 µM and 12.6 µM, respectively.

Turning to `CNC(=S)N/N=C/C(C)=N/NC(=S)NC`, the TGI in the test with 786-0 renal, in the test on U251 CNS, in the test on MALME-3M melanoma, with OVCAR-3 ovarian, with NCI-H460 lung and in the test with M19-MEL melanoma was greater than 100 µM in each case. In the test with SN12C renal, this compound displayed a TGI greater than 100 µM.

As to `CNC(=O)OCc1cnc([N+](=O)[O-])n1C`, the TGI with 786-0 renal, in the test with SR leukemia, with U251 CNS, in the test on MALME-3M melanoma, in the test with OVCAR-3 ovarian and in the test with NCI-H460 lung was greater than 100 µM throughout. Besides, the TGI in the test with HL-60(TB) leukemia, in the test with SN12C renal and with NCI-H226 lung was greater than 100 µM each time.

Take `COC(=O)c1ccccc1C1CN=NC12Cc1ccc(C)cc1C2=O` (stereo not drawn): the TGI in the test with 786-0 renal, in the test on SR leukemia, in the test on U251 CNS, in the test on MALME-3M melanoma, in the test with OVCAR-3 ovarian and in the test on NCI-H460 lung was greater than 100 µM in each case. For the same compound, the TGI in the test with HL-60(TB) leukemia, with SN12C renal and in the test with NCI-H226 lung was greater than 100 µM throughout.

Regarding `CC(=O)O[C@H]1[C@@H](N2CCOCC2)C[C@H]2[C@@H]3CC=C4C[C@@H](N5CCCC5)CC[C@]4(C)[C@H]3CC[C@@]21C`, the TGI with 786-0 renal was greater than 100 µM; with SR leukemia, 83.7 µM; in the test on U251 CNS it was greater than 100 µM; in the test with MALME-3M melanoma it was greater than 100 µM; in the test with OVCAR-3 ovarian, greater than 100 µM; in the test with NCI-H460 lung it was greater than 100 µM. Further, the TGI in the test on HL-60(TB) leukemia, in the test on SN12C renal and in the test with NCI-H226 lung was greater than 100 µM in each case.

Regarding `S=C(NCc1ccccn1)N/N=C/c1ccccn1`, the TGI was greater than 86.1 µM with 786-0 renal; 0.0113 µM in the test on SR leukemia; greater than 60.2 µM with U251 CNS; 38.3 µM in the test with MALME-3M melanoma; greater than 100 µM in the test on OVCAR-3 ovarian; 2.7 µM in the test on NCI-H460 lung. The TGI with HL-60(TB) leukemia was less than 0.01 µM; with SN12C renal, 9.25 µM; in the test on NCI-H226 lung it was 0.163 µM.
